# Literature values in US20140228364A1, “Ophthalmic Compositions Comprising Prostaglandin F2 Alpha Derivatives and Hyaluronic Acid” (priority 2011, published 2014).
row,Structure (SMILES),Solubility in water
1,"CCCCCCCC(=O)CC[C@@H]1[C@@H](C/C=C\CCCC(=O)OC(C)C)[C@@H](O)C[C@H]1O [unoprostone isopropyl, 13,14-dihydro-20-ethyl-15-ketoprostaglandin F2α-isopropylester]",almost insoluble in water
2,CCCCC[C@H](O)/C=C/[C@H]1[C@H](O)CC(=O)[C@H]1C/C=C\CCCC(=O)O [8-isoprostaglandin E2],almost insoluble in water
3,CCNC(=O)CCC/C=C\C[C@@H]1[C@@H](/C=C/[C@@H](O)CCc2ccccc2)[C@H](O)C[C@@H]1O [bimatoprost],almost insoluble in water

# More lines, now with the values ahead:
row,Solubility in water,Structure (SMILES)
1,almost insoluble in water,"CC(C)OC(=O)CCC/C=C\C[C@@H]1[C@@H](CC[C@@H](O)CCc2ccccc2)[C@H](O)C[C@@H]1O [Latanoprost, isopropyl-(Z)-7-[(1R,2R,3R,5S)-3,5-dihydroxy-2-[(3R)-3-hydroxy-5-phenylpentyl]cyclopentyl]-5-heptenoate]"
2,almost insoluble in water,CC(C)OC(=O)CCC/C=C\C[C@@H]1[C@@H](/C=C/C(F)(F)COc2ccccc2)[C@H](O)C[C@@H]1O [tafluprost]
3,almost insoluble in water,"CC(C)OC(=O)CCC/C=C\C[C@@H]1[C@@H](/C=C/[C@@H](O)COc2cccc(C(F)(F)F)c2)[C@H](O)C[C@@H]1O [travoprost, 20-ethyl prostaglandin F2α-(+)-fluprostenol isopropyl ester]"
